Reference: patent publication US20130178454A1, “COMBINATION OF TESTOSTERONE AND ORNITHINE DECARBOXYLASE (ODC) INHIBITORS” (priority 2011, published 2013)
“Also recorded” adds a separate entry of the source.

What was measured:
[1] = test system: PSA expression in the prostate epithelial cells; experiment: PSA expression in prostate epithelial cells (FIG. 7B); assay type: cell-based; settings: follistatin 1 ng/ml and 5 ng/ml, R1881 1 nM
[2] = test system: carcinogen-induced cancer development; settings: variety of rodent models; cited from earlier work
[3] = target: T1, ornithine decarboxylase (Homo sapiens, UniProt P11926); settings: cited from earlier work
T1 sequence (P11926 1-461): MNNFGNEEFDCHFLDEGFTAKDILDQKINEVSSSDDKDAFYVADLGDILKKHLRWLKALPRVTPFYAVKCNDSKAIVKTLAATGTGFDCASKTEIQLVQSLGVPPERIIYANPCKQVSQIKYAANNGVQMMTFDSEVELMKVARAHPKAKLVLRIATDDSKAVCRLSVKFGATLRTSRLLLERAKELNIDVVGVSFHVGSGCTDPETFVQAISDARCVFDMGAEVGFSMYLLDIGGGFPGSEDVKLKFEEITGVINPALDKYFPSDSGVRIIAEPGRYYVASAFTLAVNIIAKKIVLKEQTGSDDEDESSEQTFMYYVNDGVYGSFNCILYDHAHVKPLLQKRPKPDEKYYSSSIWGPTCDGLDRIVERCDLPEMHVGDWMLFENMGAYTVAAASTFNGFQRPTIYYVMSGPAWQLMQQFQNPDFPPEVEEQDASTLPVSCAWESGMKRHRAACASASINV

[4] = test system: castrated C57BL/6 mice; experiment: Prostate and levator ani muscle weights in castrated mice treated with testosterone or testosterone plus DFMO (FIG. 9); assay type: in vivo
Source text: Shown is a histogram showing prostate weights and levator ani muscle weights in vehicle-treated intact C57BL/6 mice, and castrated mice treated with vehicle, testosterone, or testosterone plus an ODC inhibitor DFMO.

[5] = test system: PCNA expression in the prostate epithelial cells; experiment: PCNA expression in prostate epithelial cells (FIG. 7C); assay type: cell-based; settings: follistatin 1 ng/ml and 5 ng/ml, DHT 10 nM
[6] = test system: castrated (CX) mice; experiment: Histologic sections of the prostate in castrated mice (FIG. 7A); assay type: in vivo
[7] = cited from earlier work
[8] = test system: ornithine decarboxylase (ODC) and polyamine pathway in the prostate; experiment: Microarrays of prostate RNA from castrated mice treated with follistatin or testosterone (FIG. 8); assay type: in vivo; settings: microarray
Source text: FIG. 8A is a schematic of microarray experiments to identify testosterone-selective signalling pathways in the prostate which are not activated by follistatin (Fst), and identify genes which are follistatin sensitive and those which are testosterone sensitive. Adult male mice were either sham-castrated or castrated under ketamine-xylazine anesthesia and treated with vehicle (sham), follistatin or testosterone. RNA was extracted from the prostate and levator ani muscle and subjected to microarrays. […] Shown in the box is the region of highly differentially expressed genes between the follistatin (Fst/CX) and testosterone (Tes/CX) treated mice.
Using microarrays, the inventors elucidated the signaling pathways that are differentially activated in the skeletal muscle and prostate by each of testosterone and follistatin, and assessed the pathways that are specifically activated in the prostate by testosterone, but were not follistatin (FIG. 8A-8B). The inventors determined that testosterone and follstatin both activate common signaling pathways that mediate their anabolic effects on the skeletal muscle, and specifically assessed if testosterone activates one or more unique signaling pathways in the prostate that are not activated by follistatin.

[9] = test system: older men with low or low normal testosterone levels; settings: testosterone versus placebo; cited from earlier work
[10] = test system: Wnt target genes in 3T3-L1 cells; settings: 3T3-L1 cells incubated with 100 nM testosterone; cited from earlier work
[11] = test system: C3H 10T1/2 cells; settings: 100 nm testosterone, 0.5 μg/ml anti-Fst antibody, rFst 0.2 μg/ml; cited from earlier work
[12] = test system: LNCaP cells; experiment: Proliferation of androgen-sensitive LNCaP cells in vitro; assay type: cell-based
[13] = test system: C57BL/6 mice; experiment: Systemic follistatin treatment of mice: fat mass, lean mass, muscle and bone mass (FIG. 6); assay type: in vivo
[14] = mice in vivo, given with testosterone

For C[C@]1(O)CC[C@H]2[C@@H]3CCC4=CC(=O)CCC4=C3C=C[C@@]21C [R1881], the PSA expression [1] was “stimulates PSA expression”.

In the case of NCCCC(N)(C(=O)O)C(F)F (racemic) [DFMO, (RS)-2,5-diamino-2-(difluoromethyl)pentanoic acid], the carcinogen-induced cancer development [2] is listed as “inhibit carcinogen-induced cancer development”, the “inhibition of ornithine decarboxylase” value [3] is listed as “potent inhibitor of ornithine decarboxylase” and the “effect of the ODC inhibitor on testosterone's anabolic effect on the muscle” value [4, 14] is listed as “did not block testosterone's effect on the muscle; also recorded: maintaining muscle anabolic effects of testosterone”. For the same molecule, the “effect of the ODC inhibitor on testosterone-induced prostate growth” value [4, 14] was “blocks testosterone's effects on the prostate; also recorded: suppresses testosterone-induced prostate growth in vivo”.

For C[C@]12CCC(=O)C[C@@H]1CC[C@@H]1[C@@H]2CC[C@]2(C)[C@@H](O)CC[C@@H]12 [DHT, Dihydrotestosterone], the PCNA expression [5] was “upregulated PCNA expression”.

In the case of C[C@]12CC[C@H]3[C@@H](CCC4=CC(=O)CC[C@@]43C)[C@@H]1CC[C@@H]2O [testosterone, 17-β-hydroxyandrost-4-en-3-one], the “prostate growth and prostate glands” value [6] is given as “restored prostate mass and growth of prostate glands”, the “testosterone circulating unbound to plasma proteins” value [7] is given as “Less than 2.5%” and the “polyamine biosynthetic pathway / ODC gene expression in the prostate” value [8] is given as “activated by testosterone in the prostate”. For the same molecule, the “polyamine biosynthetic pathway / ODC gene expression in the prostate” value ([8]; listed as Testosterone) was “upregulate several biosynthetic pathways including the polyamine biosynthetic pathway”, the fat mass [9] was “reduces fat mass” and the “lean body mass, muscle strength and bone mineral density” value [9] was “improves lean body mass (LBM), a measure of muscle mass, muscle strength and bone mineral density (BMD)”. The “Fst, CD44 and Lef1 gene expression” value [10] was “upregulation of Fst (follastin) and CD44 and Lef1 gene expression”, the “myogenic differentiation of mesenchymal multipotent cells” value [11] was “promotes myogenic differentiation; also recorded: stimulate myogenic differentiation” and the “levator ani muscle mass (levator ani muscle weights)” value ([4]; castrated C57BL/6 mice) was “restored prostate as well as levator ani muscle mass”. For the same molecule, the “prostate mass (prostate weights)” value ([4]; castrated C57BL/6 mice) was “restored prostate as well as levator ani muscle mass”.

B1: follistatin: an endogenous protein that increases muscle mass; recombinant Fst protein (protein, UniProt P19883 30-344, looked up)
Follistatin: GNCWLRQAKNGRCQVLYKTELSKEECCSTGRLSTSWTEEDVNDNTLFKWMIFNGGAPNCIPCKETCENVDCGPGKKCRMNKKNKPRCVCAPDCSNITWKGPVCGLDGKTYRNECALLKARCKEQPELEVQYQGRCKKTCRDVFCPGSSTCVVDQTNNAYCVTCNRICPEPASSEQYLCGNDGVTYSSACHLRKATCLLGRSIGLAYEGKCIKAKSCEDIQCTGGKKCLWDFKVGRGRCSLCDELCPDSKSDEPVCASDNATYASECAMKEAACSSGVLLEVKHSGSCNSISEDTEEEEEDEDQDYSFPISSILEW
For B1, the “prostate growth and prostate glands” value [6] was “does not stimulate prostate growth; also recorded: did not stimulate prostate growth or glands”, the “polyamine biosynthetic pathway / ODC gene expression in the prostate” value [8] was “not upregulated” and the PSA expression [1] was “nor does it up regulate PSA expression; also recorded: does not stimulate PSA expression”. The “myogenic differentiation of mesenchymal multipotent cells” value [11] was “stimulate myogenic differentiation”, the “proliferation of androgen-sensitive LNCaP cells” value [12] was “does not up stimulate the proliferation” and the fat mass ([13]; castrated mice) was “reduces fat mass”. For the same molecule, the “muscle and bone mass” value ([13]; castrated mice) was “increases muscle and bone mass”, the “lean body mass, measured by NMR” value ([13]; mice, 13 weeks systemic administration of 0, 10, 30 and 100 μg recombinant follistatin) was “increased dose-dependently” and the “fat mass, expressed as a percent of body weight” value ([13]; mice, 13 weeks systemic administration of 10, 30 and 100 μg follistatin) was “fat mass is decreased”.
